MIC and ED50 data for 7 compounds are collected here from patent US4217446A, “ωAmino-2-hydroxyalkyl derivatives of aminoglycoside antibiotics” (Pfizer Inc., priority 1974, dated 1980).

By MIC is commonly meant the least concentration at which growth counts as inhibited.

Converted amounts (≈) assume the structure as drawn.

One assay concerns Staphylococcus aureus. The assay is described as follows: in vitro antibacterial activity, minimum inhibitory concentration (M.I.C.), agar plates. It is filed as cell-based. To be noted: 24 hours at 37° C., read-out: MIC Staph. aureus. On the procedure:
(§1) The in vitro evaluation of the compounds of the invention as antibacterial agents has been performed by determining the minimum inhibitory concentration (M.I.C.) of the test compound in a suitable medium at which growth of the particular micro-organism fails to occur. In practice, agar plates, each having incorporated therein the test compound at a particular concentration are inoculated with a standard number of cells of the test micro-organism and each plate is then incubated for 24 hours at 37° C. The plates are then observed for the presence or absence of the growth of bacteria and the appropriate M.I.C. value noted. Micro-organisms used in such tests having included strains of Escherichia coli, Klebsiella pneumoniae, Proteus mirabilis, Pseudomonas aeruginosa, Staphylococcus aureus and Streptococcus faecalis. Results of the testing of several of the compounds of this invention for their in vitro antibacterial activity, by the method described hereinbefore, are presented in Table I.

For the next assay, the system named is Klebsiella pneumoniae. Described as above. It is filed as cell-based. Conditions: 24 hours at 37° C., read-out: MIC Kleb. pneumoniae. On the procedure:
as §1

The test system of another assay is Proteus mirabilis. Described as above. It is filed as cell-based. To be noted: 24 hours at 37° C. The method, then: as §1
In the next assay the test system is Escherichia coli. The assay is described as above. It is filed as cell-based. Conditions: 24 hours at 37° C., read-out: MIC Esch. coli. On the procedure: as §1
The test system of another assay is Pseudomonas aeruginosa. The assay is described as above. To be noted: 24 hours at 37° C., read-out: MIC Pseud. aeruginosa. It is filed as cell-based. The method, then: as §1
Another assay relates to E. coli. Put plainly: in vivo antibacterial activity against E. coli in mice, 50% protection against lethal effect. Conditions: Escherichia coli, sc, subcutaneous, 50% protection over 72 hours, read-out: PD50. On the procedure: Each compound is administered at a series of dosage levels to groups of mice and its activity is determined as the level at which it gives 50% protection, against the lethal effect of the Escherichia coli organism over a period of 72 hours.
The in vivo antibacterial activity of 1-N-[(S)-4-amino-2-hydroxybutyl]kanamycin A against E. coli in mice has been measured.

`NCC[C@H](O)CN[C@@H]1C[C@H](N)[C@@H](O[C@H]2O[C@H](CN)[C@@H](O)[C@H](O)[C@H]2N)[C@H](O[C@@H]2O[C@H](CO)[C@@H](O)[C@H]2O)[C@H]1O` [1-N-[(S)-4-Amino-2-hydroxybutyl]ribostamycin]: the MIC in the assay with Staphylococcus aureus worked out at 12.5 µg/mL (≈ 23.1 µM); in the assay with Klebsiella pneumoniae, 6.2 µg/mL (≈ 11.4 µM); against Proteus mirabilis it was 25 µg/mL (≈ 46.2 µM); in the assay on Escherichia coli it was 6.2 µg/mL (≈ 11.4 µM); in the assay on Pseudomonas aeruginosa it was 12.5 µg/mL (≈ 23.1 µM).
For `NCC[C@H](O)CN[C@@H]1C[C@H](N)[C@@H](O[C@H]2O[C@H](CN)[C@@H](O)[C@H](O)[C@H]2O)[C@H](O)[C@H]1O[C@H]1O[C@H](CO)[C@@H](O)[C@H](N)[C@H]1O` [1-N-[(S)-4-Amino-2-hydroxybutyl]kanamycin A], in the assay with E. coli, the ED50 was found to be 3.8 mg/kg. Besides, the MIC in the assay with Staphylococcus aureus is 1.6 µg/mL (≈ 2.8 µM); in the assay on Klebsiella pneumoniae, 3.1 µg/mL (≈ 5.42 µM); in the assay with Proteus mirabilis, 3.1 µg/mL (≈ 5.42 µM); with Escherichia coli, 6.2 µg/mL (≈ 10.8 µM); with Pseudomonas aeruginosa, 1.6 µg/mL (≈ 2.8 µM).
Consider `NCCCC[C@H](O)CN[C@@H]1C[C@H](N)[C@@H](O[C@H]2O[C@H](CN)[C@@H](O)[C@H](O)[C@H]2O)[C@H](O)[C@H]1O[C@H]1O[C@H](CO)[C@@H](O)[C@H](N)[C@H]1O` [1-N-[(S)-6-Amino-2-hydroxyhexyl]-kanamycin A], for which the MIC was determined as 1.6 µg/mL (≈ 2.67 µM) in the assay on Staphylococcus aureus; 6.2 µg/mL (≈ 10.3 µM) in the assay on Klebsiella pneumoniae; 3.1 µg/mL (≈ 5.17 µM) in the assay on Proteus mirabilis; 6.2 µg/mL (≈ 10.3 µM) in the assay with Escherichia coli; 3.1 µg/mL (≈ 5.17 µM) in the assay with Pseudomonas aeruginosa.
In the case of `NCCC[C@H](O)CN[C@@H]1C[C@H](N)[C@@H](O[C@H]2O[C@H](CN)[C@@H](O)[C@H](O)[C@H]2O)[C@H](O)[C@H]1O[C@H]1O[C@H](CO)[C@@H](O)[C@H](N)[C@H]1O` [1-N-[(S)-5-Amino-2-hydroxypentyl]kanamycin A], the MIC turned out to be 1.6 µg/mL (≈ 2.73 µM) in the assay with Staphylococcus aureus; 3.1 µg/mL (≈ 5.29 µM) in the assay on Klebsiella pneumoniae; 12.5 µg/mL (≈ 21.3 µM) with Proteus mirabilis; 6.2 µg/mL (≈ 10.6 µM) in the assay on Escherichia coli; 3.1 µg/mL (≈ 5.29 µM) in the assay with Pseudomonas aeruginosa.
With `NCC(O)CN[C@@H]1C[C@H](N)[C@@H](O[C@H]2O[C@H](CN)[C@@H](O)[C@H](O)[C@H]2O)[C@H](O)[C@H]1O[C@H]1O[C@H](CO)[C@@H](O)[C@H](N)[C@H]1O` (stereo partly drawn) [1-N-[3-amino-2-hydroxypropyl]kanamycin, 1-N-[3-Amino-2-hydroxpropyl]kanamycin A], the MIC with Staphylococcus aureus turned out to be 3.1 µg/mL (≈ 5.56 µM); in the assay with Klebsiella pneumoniae it was 6.2 µg/mL (≈ 11.1 µM); against Proteus mirabilis, 12.5 µg/mL (≈ 22.4 µM); in the assay with Escherichia coli, 12.5 µg/mL (≈ 22.4 µM); in the assay on Pseudomonas aeruginosa, 3.1 µg/mL (≈ 5.56 µM).
`NCC[C@H](O)CN[C@@H]1C[C@H](N)[C@@H](O[C@H]2O[C@H](CN)[C@@H](O)[C@H](O)[C@H]2N)[C@H](O)[C@H]1O[C@H]1O[C@H](CO)[C@@H](O)[C@H](N)[C@H]1O` [1-N-[(S)-4-Amino-2-hydroxybutyl]kanamycin B]: the MIC with Staphylococcus aureus came out at 1.6 µg/mL (≈ 2.8 µM); in the assay on Klebsiella pneumoniae, 1.6 µg/mL (≈ 2.8 µM); against Proteus mirabilis it was 6.2 µg/mL (≈ 10.9 µM); with Escherichia coli, 3.1 µg/mL (≈ 5.43 µM); in the assay on Pseudomonas aeruginosa, 0.8 µg/mL (≈ 1.4 µM).
`CNC[C@H]1O[C@H](O[C@H]2[C@H](O)[C@@H](O[C@H]3O[C@H](CO)[C@@H](O)[C@H](N)[C@H]3O)[C@H](NC[C@@H](O)CCN)C[C@@H]2N)[C@H](O)[C@@H](O)[C@@H]1O` [6'-N-Methyl-1-N-[(S)-4-amino-2-hydroxybutyl]kanamycin A]: the MIC with Staphylococcus aureus stood at 3.1 µg/mL (≈ 5.29 µM); in the assay with Klebsiella pneumoniae, 3.1 µg/mL (≈ 5.29 µM); in the assay on Proteus mirabilis it was 6.2 µg/mL (≈ 10.6 µM); in the assay on Escherichia coli it was 6.2 µg/mL (≈ 10.6 µM); in the assay with Pseudomonas aeruginosa it was 3.1 µg/mL (≈ 5.29 µM).
